# Data: ChEMBL document CHEMBL4765254, “Design, synthesis and biological evaluation of 1-alkyl-5/6-(5-oxo-4,5-dihydro-1,2,4-oxadiazol-3-yl)-1H-indole-3-carbonitriles as novel xanthine oxidase inhibitors” (Eur J Med Chem, 2020)
# Active and inactive are the calls of the source. The rule behind the calls is not given here.
# Tested on: Rattus norvegicus
# Assay: Hypouricemic activity in Sprague-Dawley rat model of Potassium oxonate-induced acute hyperuricemia assessed as decrease in serum uric acid level at 10 mg/kg, ig administered 1 hr after potassium oxonate treatment and measured after 3 hrs relative to control
# Assay type: functional
# Design: scale not given: the % may be the effect or the level left
# Details: time 4 hrs
row,SMILES,Activity [%]
1,N#Cc1cn(C2CCCC2)c2ccc(-c3noc(=O)[nH]3)cc12,20.8

# Biological target: T1, Xanthine dehydrogenase/oxidase (Bos taurus, UniProt P80457)
# Assay: Mixed type inhibition of bovine xanthine oxidase assessed as inhibitory constant using xanthine as substrate preincubated for 25 mins followed by substrate addition measured at first 2 mins by spectrophotometry based Lineweaver-Burk plot analysis
# Details: not given
# T1 sequence (P80457 whole entry): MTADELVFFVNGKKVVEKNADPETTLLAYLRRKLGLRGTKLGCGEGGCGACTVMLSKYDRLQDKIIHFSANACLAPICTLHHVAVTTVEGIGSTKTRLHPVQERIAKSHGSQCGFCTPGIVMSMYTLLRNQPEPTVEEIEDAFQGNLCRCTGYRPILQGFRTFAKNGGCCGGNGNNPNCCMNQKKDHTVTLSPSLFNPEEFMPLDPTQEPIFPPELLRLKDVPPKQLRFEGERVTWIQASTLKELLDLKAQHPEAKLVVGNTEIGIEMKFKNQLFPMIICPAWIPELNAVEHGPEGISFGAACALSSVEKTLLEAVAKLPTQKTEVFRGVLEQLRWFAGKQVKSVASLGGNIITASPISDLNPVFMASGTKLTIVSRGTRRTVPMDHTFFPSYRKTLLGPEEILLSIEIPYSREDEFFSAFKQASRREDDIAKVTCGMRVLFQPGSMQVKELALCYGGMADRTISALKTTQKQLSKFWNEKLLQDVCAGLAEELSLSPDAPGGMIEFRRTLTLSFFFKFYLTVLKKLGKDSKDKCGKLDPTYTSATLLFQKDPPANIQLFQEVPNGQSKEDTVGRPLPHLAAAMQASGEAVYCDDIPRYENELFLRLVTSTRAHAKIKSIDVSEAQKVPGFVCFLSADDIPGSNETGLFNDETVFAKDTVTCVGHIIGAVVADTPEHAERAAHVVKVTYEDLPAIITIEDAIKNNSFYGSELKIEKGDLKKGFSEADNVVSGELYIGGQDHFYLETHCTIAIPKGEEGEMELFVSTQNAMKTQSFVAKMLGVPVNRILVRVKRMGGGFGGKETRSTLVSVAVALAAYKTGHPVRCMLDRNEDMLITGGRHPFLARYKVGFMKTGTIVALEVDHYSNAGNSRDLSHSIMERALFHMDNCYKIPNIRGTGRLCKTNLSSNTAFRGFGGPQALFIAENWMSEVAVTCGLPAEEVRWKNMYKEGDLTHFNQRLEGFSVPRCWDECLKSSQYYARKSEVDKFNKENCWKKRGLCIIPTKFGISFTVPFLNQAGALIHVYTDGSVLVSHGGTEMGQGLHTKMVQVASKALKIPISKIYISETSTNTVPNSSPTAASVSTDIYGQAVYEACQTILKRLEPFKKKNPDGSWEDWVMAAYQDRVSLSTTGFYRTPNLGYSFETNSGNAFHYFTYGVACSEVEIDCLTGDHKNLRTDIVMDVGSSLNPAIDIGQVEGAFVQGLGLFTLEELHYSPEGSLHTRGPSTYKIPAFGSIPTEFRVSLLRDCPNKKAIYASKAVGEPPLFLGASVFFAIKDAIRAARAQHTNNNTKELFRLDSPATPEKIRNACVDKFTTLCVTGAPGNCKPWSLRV
row,Ki [nM],SMILES
1,138,N#Cc1cn(C2CCCC2)c2ccc(-c3noc(=O)[nH]3)cc12

# Tested on: Rattus norvegicus
# Assay: Hypouricemic activity in Sprague-Dawley rat model of Potassium oxonate-induced acute hyperuricemia assessed as decrease in serum urate level at 10 mg/kg, ig administered 1 hr after potassium oxonate treatment and measured after 8 hrs
# Assay type: functional, organism-based
# Details: not given
row,SMILES,Activity
1,N#Cc1cn(C2CCCC2)c2ccc(-c3noc(=O)[nH]3)cc12,Active

# Tested on: Rattus norvegicus
# Assay: Hypouricemic activity in Sprague-Dawley rat model of Potassium oxonate-induced acute hyperuricemia assessed as percentage decrease in serum uric acid AUC (1 to 8 hrs) at 10 mg/kg, ig administered 1 hr after potassium oxonate treatment and measured after 8 hrs relative to control
# Assay type: functional
# Design: scale not given: the % may be the effect or the level left
# Details: not given
row,SMILES,Activity [%]
1,N#Cc1cn(C2CCCC2)c2ccc(-c3noc(=O)[nH]3)cc12,12.8

# Biological target: T1, Xanthine dehydrogenase/oxidase
# Assay: Inhibition of bovine xanthine oxidase assessed as reduction in uric acid formation using xanthine as substrate preincubated for 25 mins followed by substrate addition measured at first 2 mins by spectrophotometric analysis
# Details: not given
row,IC50 [nM],SMILES
1,2070,N#Cc1cn(Cc2ccc(Br)cc2)c2ccc(-c3noc(=O)[nH]3)cc12
2,4130,N#Cc1c[nH]c2ccc(-c3noc(=O)[nH]3)cc12
3,1020,CC(C)CCn1cc(C#N)c2cc(-c3noc(=O)[nH]3)ccc21
4,2600,N#Cc1cn(Cc2cccc(Br)c2)c2ccc(-c3noc(=O)[nH]3)cc12
5,1140,Cc1ccc(Cn2cc(C#N)c3cc(-c4noc(=O)[nH]4)ccc32)cc1
6,1720,N#Cc1cn(Cc2ccccc2)c2ccc(-c3noc(=O)[nH]3)cc12
7,1700,COc1cccc(Cn2cc(C#N)c3cc(-c4noc(=O)[nH]4)ccc32)c1
8,1240,CC(C)=CCn1cc(C#N)c2cc(-c3noc(=O)[nH]3)ccc21
9,1710,N#Cc1cn(Cc2ccc(F)cc2)c2ccc(-c3noc(=O)[nH]3)cc12
10,1800,CC(C)n1cc(C#N)c2ccc(-c3noc(=O)[nH]3)cc21
11,2930,N#Cc1cn(Cc2cccc(Cl)c2)c2ccc(-c3noc(=O)[nH]3)cc12
12,2160,Cc1cccc(Cn2cc(C#N)c3cc(-c4noc(=O)[nH]4)ccc32)c1
13,410,CC(C)n1cc(C#N)c2cc(-c3noc(=O)[nH]3)ccc21
14,3600,N#Cc1cn(Cc2cccc(F)c2)c2ccc(-c3noc(=O)[nH]3)cc12
15,5410,Cn1cc(C#N)c2cc(-c3noc(=O)[nH]3)ccc21
16,1840,Cc1ccc(Cn2cc(C#N)c3ccc(-c4noc(=O)[nH]4)cc32)cc1
17,1090,CC(C)Cn1cc(C#N)c2cc(-c3noc(=O)[nH]3)ccc21
18,1020,COc1ccc(Cn2cc(C#N)c3cc(-c4noc(=O)[nH]4)ccc32)cc1
19,6560,CC(C)CCn1cc(C#N)c2ccc(-c3noc(=O)[nH]3)cc21
20,2860,N#Cc1cn(CC2CCCCC2)c2ccc(-c3noc(=O)[nH]3)cc12
21,880,N#Cc1cn(CC2CC2)c2ccc(-c3noc(=O)[nH]3)cc12
22,820,N#Cc1cn(C2CCCC2)c2cc(-c3noc(=O)[nH]3)ccc12
23,1440,CC(C)(C)c1ccc(Cn2cc(C#N)c3cc(-c4noc(=O)[nH]4)ccc32)cc1
24,2400,N#Cc1cn(Cc2ccc(Cl)cc2)c2ccc(-c3noc(=O)[nH]3)cc12

# Biological target: T1, Xanthine dehydrogenase/oxidase
# Assay: Inhibition of bovine xanthine oxidase assessed as reduction in uric acid formation at 10 uM using xanthine as substrate preincubated for 25 mins followed by substrate addition measured at first 2 mins by spectrophotometric analysis relative to control
# Details: cattle, time 27 min
row,inhibition at 10 µM [%],SMILES
1,< 50,O=c1[nH]c(-c2ccc3c(ccn3C3CCCC3)c2)no1
2,< 50,CC(C)n1ccc2cc(-c3noc(=O)[nH]3)ccc21
